Legend:
[1] = target: T1, CARD9-TRIM62 protein-protein interaction (Homo sapiens, UniProt Q9H257); assay: Luminex bead-based ELISA CARD9-TRIM62 protein-protein interaction assay; assay type: binding
T1 construct: expressed in transfected cells; host or cells: HEK293F (Life Technologies, R790-07), separate transient transfections, cleared lysates
T1 sequence (Q9H257 1-536): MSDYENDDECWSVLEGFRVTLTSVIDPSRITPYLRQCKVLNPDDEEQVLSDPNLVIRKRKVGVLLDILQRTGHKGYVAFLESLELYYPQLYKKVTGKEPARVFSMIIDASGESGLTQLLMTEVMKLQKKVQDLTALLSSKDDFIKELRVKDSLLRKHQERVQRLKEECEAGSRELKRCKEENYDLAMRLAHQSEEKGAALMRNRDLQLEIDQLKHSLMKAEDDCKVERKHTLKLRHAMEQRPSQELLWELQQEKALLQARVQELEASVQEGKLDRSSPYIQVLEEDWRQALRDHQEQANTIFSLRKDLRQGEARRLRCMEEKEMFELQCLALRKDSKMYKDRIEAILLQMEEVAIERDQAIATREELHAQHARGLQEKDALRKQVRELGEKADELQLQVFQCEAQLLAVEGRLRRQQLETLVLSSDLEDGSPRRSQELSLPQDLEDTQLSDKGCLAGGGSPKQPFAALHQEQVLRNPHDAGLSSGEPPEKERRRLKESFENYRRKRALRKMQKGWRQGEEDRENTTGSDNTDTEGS
Protocol: Flag-StrepII-CARD9 and TRIM62 were purified as described (Cao et al). TRIM62ΔRING and B30.2/SPRY were expressed in Sf9 cells in pFastBac as His8 fusion. For Luminex assay, HEK293F cells were transfected with 3XMyc-TRIM62 in pCMV and separately with Flag-CARD9 in pcDNA4/TO. Anti-Myc tag antibody (9E10) was conjugated to the beads and used for TRIM62 affinity capture from cleared lysates. Following the incubation with compounds, Flag-CARD9 lysate was added; after a series of washes and secondary PE-conjugated antibody incubation, readout was performed on MagPlex instruments.
HEK293F (Life Technologies, R790-07) cells were grown in Freestyle media (Cat. #12338) according to manufacturer's instructions. Cells were transiently transfected with 3XMyc-TRIM62 in pCMV and separately with Flag-CARD9 in pcDNA4/TO. Anti-Myc tag antibody (9E10, Sigma) was conjugated to the Luminex beads (10 spectral range beads in 10 separate reactions) using Pierce reagents/Luminex coupling kit. Flag-CARD9 and Myc-TRIM62 transfected cells were separately lysed in the lysis buffer (50 mM Tris pH 7.4, 150 mM NaCl, 0.5% NP40, protease inhibitors (Complete, Roche, 11873580001), phosphatase inhibitors (PhosStop, Roche, 4906845001)) and cleared by centrifugation at 10,000 g. Cleared TRIM62 lysates were added to the beads for Myc-mediated capture, incubated at room temperature for 1 hr, then washed lx and reconstituted in 1% BSA in PBS.
Screening compounds were pre-dispensed into assay-ready plates (twintecc, Eppendorf; 50 nl of 10 mM compound stock in DMSO per well). Cleared CARD9 lysate (20 μl per well) was added to the assay-ready plate and pre-incubated with the screening compounds for 30 min before addition of TRIM62-bound beads (300 beads per well, in 5 μl of 1% BSA in PBS). Plates were mixed on Bioshake IQ at 2400 rpm for 2 min and incubated for 40 min at room temperature. Plates were then washed on Biomek NX^P instrument with magnetic plate holders 1× with 1% BSA in PBS. Each 10 plates with non-identical spectral regions of beads were combined into one deep-well plate, and incubated with Flag-PE antibody conjugate (Abcam, ab72469) at the final dilution 1:400 for 1 hr. After 1× wash with 1% BSA in PBS, the readout was performed on Luminex MagPlex instruments with standard operating protocol. Bead quantity per well was employed as quality control measure, wells with bead count less than 20 were rejected from the analysis.

[2] = target: T2, ubiquitinylation of CARD9 by TRIM62 (Homo sapiens, UniProt Q9H257); assay: AlphaLISA ubiquitinylation assay; assay type: biochemical; details: reconstituted E1-E2-E3 TRIM62 complex
T2 construct: Full-length Flag-StrepII-CARD9 for AlphaLISA, DSF and NMR assays was expressed as previously described; StrepII (N); made in house; UBE1 and UBE2D2 purchased from LifeSensors, no catalogue numbers
T2 sequence (Q9H257 1-536): T1 sequence (Q9H257 1-536)
Protocol: FlagStrep-CARD9 and TRIM62 were expressed and purified as previously described (Cao et al.). Assay-ready plates containing 80 nl of 10 mM compound in DMSO were used. Ubiquitinylation reactions contained 12.5 nM Flag-Strep-CARD9, 1.25 nM TRIM62, 500 nM ubiquitin, 10 nM UBE1 (LifeSensors), 200 nM UBE2D2 (LifeSensors), 50 mM Tris pH=7.5, 5 mM MgCl2, 2.5 mM ATP, 1 mM DTT, 0.005% Tween-20 in a final volume of 10 μl. To assemble reactions, all reaction components except ubiquitin and Trim62 were combined and dispensed at a 2× concentration in a volume of 5 μl using a Multi-Drop Combi Reagent Dispenser. Reactions were initiated by added ubiquitin and TRIM62 at a 2× concentration in a volume of 5 μL in the same manner. The reactions were incubated at ambient temperature for 90 min then stopped by the addition of 10 μl of 2× quench/detect solution using a 16-ViaFlow dispenser. The 2× quench/detect solution contained 100 mM HEPES pH=7.5, 300 mM NaCl, 0.01% Tween 20, 30 mM ETDA, 40 μg/ml Streptavidin-Donor beads, 10 μg/ml α-Flag-Acceptor beads (both from PerkinElmer) and 100 nM biotin-TUBE1 (LifeSensors). Plates were incubated at RT for an additional 1 h then read on a PerkinElmer Envision.

[3] = Truhit alphaLISA assay for non-specific alphaLISA inhibitors; details: percent AlphaLISA signal, 100% = DMSO control
Description: Data are expressed as mean of percent AlphaLISA signal (100%=mean AlphaLISA signal with DMSO control)+/−s.d. […] The alphaLISA findings were further corroborated by TRIM62-mediated ubiquitinylation assay coupled with Western blot detection (FIG. 2E).

[4] = target: T2, ubiquitinylation of CARD9 by TRIM62; assay: TRIM62-mediated ubiquitinylation assay with Western blot detection; assay type: biochemical
Protocol: For western blot detection, ubiquitinylation reactions contained 250 nM Flag-Strep-CARD9, 5 nM TRIM62, 5 μM of HA-tagged ubiquitin (Boston Biochem), 25 nM UBE1 (LifeSensors), 300 nM UBE2D2 (LifeSensors), 50 mM Tris pH=7.5, 5 mM MgCl2, 2.5 mM ATP, 1 mM DTT in a final volume of 20 μl. Reactions were quenched by the addition of the LDS sample buffer with 50 mM DTT. HA antibody F-7 (Santa Cruz) was used for the detection of polyubiquitin chains, and Flag M2 antibody from Sigma was used to detect Flag-StrepII-CARD9 as a loading control.

[5] = tested on: phosphorylation of IKK in primary bone marrow-derived dendritic cells; assay: Phospho-IKK FACS in bone marrow-derived dendritic cells; assay type: cell-based, C57B/6 mice; details: 200 μM compound; stimuli scleroglucan (Dectin-1) or LPS (TLR4 control)
Protocol: (§1) THP-1 and HEK293T cells were from ATCC and cultured according to ATCC instructions. Cell cultures were regularly checked for mycoplasma contamination using a mycoplasma PCR test. BMDCs were isolated from femur and tibia of C57B/6 mice by harvesting bone marrows followed by hypotonic red blood cell lysis. Obtained bone marrow cells were cultured in DMEM (10% FBS, 1% penicillin/streptomycin, 1% glutamin) with 25 ng/ml GM-CSF.
For phospho-IKK FACS analysis, the BMDCs were plated on day 7 in U bottom 96-well plates at 150,000 cells/well in DMEM, 10% FBS, 1% penicillin/streptomycin, glutamine and GM-CSF the day before the assay. Growth media was replaced with reduced serum media (2% FBS), at this time compound 9 was added to the appropriate wells (at 200 μM) and cells were incubated for 2 hours. Cells were stimulated with 50 μg/ml scleroglucan (Invivogen) or 100 ng/ml LPS (Sigma) for the indicated times at 37° C. At the end of the incubation, media was aspirated and cells were fixed in 4% PFA for 10 min at 37° C.; then resuspended in blocking buffer (3% BSA in permeabilization buffer, eBioscience). […] FACS analysis was run on Cytoflex instrument (Beckman Coulter) and analyzed using FlowJo software by sequentially gating on live/single cells/MHCII high cell population.

[6] = tested on: NF-κB activation in THP-1 cells; assay: NF-κB luciferase reporter assay in THP-1 cells reconstituted with Dectin-1; assay type: cell-based; details: for WGP Dectin-1-mediated signaling to NF-κB, luciferase activity: WGP 50 μg/mL, 200 μM compound, 4-h time point
Protocol: as §1
CARD9 KO THP-1 cells were generated by a CRIPSR-based approach as previously described (Cao et al.). For the NF-κB luciferase assay, CARD9 KO or WT THP-1 cells lines were transduced with Dectin-1 (NM 022570) and a lentivirus-based NF-κB luciferase reporter, containing NF-κB responsive element upstream of minimal promoter and Luc2P54. CARD9 KO cells overexpressing Dectin-1 and the NF-κB luciferase reporter were rescued with indicated CARD9 constructs. For compound treatment, Compound 9 was pre-incubated with Dectin-1, NF-κB reporter expressing THP-1 cells for 2 hours, followed by stimulation with scleroglucan (50 μg/ml), whole glucan particles (WGP dispersible, Invivogen, 50 μg/ml), or LPS (100 ng/ml). Reporter luciferase activity was measured using Steadylite Plus reagent (PerkinElmer).

Molecule	inhibition of CARD9-TRIM62 protein-protein interaction (Luminex) [1]	inhibition of polyubiquitinylation of CARD9 by TRIM62 (AlphaLISA) [2]	non-specific alphaLISA inhibition (Truhit) [3]	inhibition of in vitro CARD9 ubiquitinylation (Western blot) [4]	phosphorylation of IKK (CARD9 signaling) [5]	WGP Dectin-1-mediated signaling to NF-κB, luciferase activity [6]	NF-κB activation, luciferase reporter ([6]; scleroglucan or LPS stimuli, 2 hr and 4 hr)	activation of Dectin-1-mediated signaling, NF-κB-driven luciferase reporter ([6]; 50 μg/mL WGP or scleroglucan)
NC(=O)C1(N2CCCCC2)CCN(c2ccc(NC(=O)c3ccccc3F)cc2C(=O)O)CC1 [compound 11]	potent inhibitor	potent inhibitor						
Cc1ccc(C(=O)Nc2cnc(N3CCC(C(N)=O)(N4CCCCC4)CC3)c(C(=O)O)c2)cc1 [compound 9]	dose-dependent inhibitors	inhibit the functional ubiquitinylation of CARD9 by TRIM62	Nonspecific inhibition was not observed	inhibition of in vitro CARD9 ubiquitinylation reaction	attenuates CARD9 signaling in stimulus-dependent manner	inhibited	attenuates CARD9 signaling in stimulus-dependent manner	
NC(=O)C1(N2CCCCC2)CCN(c2ncc(NC(=O)c3cccc(Cl)c3)cc2C(=O)O)CC1 [compound 7]	dose-dependent inhibitors	inhibit the functional ubiquitinylation of CARD9 by TRIM62	Nonspecific inhibition was not observed	inhibition of in vitro CARD9 ubiquitinylation reaction				
NC(=O)C1(N2CCCCC2)CCN(c2ncc(NC(=O)c3ccccc3)cc2C(=O)O)CC1 [compound 6]	dose-dependent inhibitors	inhibit the functional ubiquitinylation of CARD9 by TRIM62	Nonspecific inhibition was not observed	inhibition of in vitro CARD9 ubiquitinylation reaction		inhibited		
NC(=O)C1(N2CCCCC2)CCN(c2ncc(NC(=O)c3ccc(Cl)cc3)cc2C(=O)O)CC1 [compound 27]	dose-dependent inhibitors	inhibit the functional ubiquitinylation of CARD9 by TRIM62	Nonspecific inhibition was not observed	inhibition of in vitro CARD9 ubiquitinylation reaction				
scleroglucan [reference compound]								more potent ligand than WGP

From patent US11382908B2, “Compositions and methods for treating inflammatory bowel disease” (The Broad Institute, Inc., priority 2017, dated 2022)
